Reference: patent US8278278B2, “Cell proliferation reducing cancer specific PCNA peptides” (Indiana University Research and Technology Corporation, priority 2008, dated 2012)
Entries after “also recorded” stand apart in the source; their conditions may differ. Where two headings read alike, the source gives them in different places. Non-standard residues stand in square brackets, D forms with d. Residues, ends and D or L forms follow the SMILES beside them. No end group written: not given here. *: point of attachment. FITC = O=C1OC2(c3ccc(O)cc3Oc3cc(O)ccc32)c2ccc(NC(=S)*)cc21

Tests used:
MCF 7 (breast cancer) = assay: Cell death by flow cytometry in malignant breast cells; format: cell-based; details: 50 μM, 48 hours
Experimental: The R9-caPeptide was evaluated for cytotoxic effects in non-malignant (MCF 10A) and malignant (MCF 7) breast cells (Table 6). The cells were treated with 50 μM R9-caPeptide for 48 hours and the extent of cell death was evaluated by flow cytometry. […] The significant level of cytotoxicity in breast cancer cells is likely due to enhanced binding interaction of caPeptide with specific DNA repair proteins in these cells, as indicated for example by the observed preferential binding of caPCNA for XPG protein, leading to an inhibition of DNA repair in these cells, and ultimately cell death.

[1] = test system: U937 monocytic lymphoma cells; assay: Cytotoxicity/apoptosis of R9-linked caPCNA peptides in U937 cells by flow cytometry; format: cell-based; details: 24 hours; for cytotoxic activity / apoptosis: R9 up to 100 μM, caPeptide up to 200 μM; for % cancer cell death: 30 μM of peptide, flow cytometry
Experimental: First, it was tested whether or not the R9 sequence alone had any cytotoxic effect in U937 cells. The U937 cells were treated with up to 100 μM of the R9 sequence for 24 hours.
Once it was established that the R9 sequence promoted cellular uptake of the peptide, increasing amounts of R9-caPep were added to U937 cells to determine if the peptide's uptake would have any cytotoxic effect.
To verify that the cytotoxicity of the R9-caPep was due to the PCNA peptide sequence itself, a scrambled peptide using the same eight amino acids, R9-Scrambled, was prepared (Table 3).
The cancer associated epitope of PCNA is also part of the flexible IDCL region of PCNA. This region of PCNA is considered to have a disordered structure. Disordered regions in proteins are usually associated with protein-to-protein interaction sites. […] To determine which amino acids in the R9-caPep sequence are necessary for binding of the peptide to these proteins, peptide constructs were generated that mutated each amino acid individually to an alanine (Table 3). Each alanine mutant peptide of caPCNA was used to treat U937 cells for 24 hours. An amino acid that is important to protein binding would presumably show decreased cell cytotoxicity when it is substituted with an alanine. Those amino acids which are not critical for binding could be anticipated to show a cytotoxic level similar to that of the unsubstituted peptide. For a comparison of the potential cytotoxic effect of each of the alanine substituted R9-linked caPeptides, U937 cells were treated with 30 μM of peptide. […] It was observed that peptides containing an alanine substituted at position aa126 or aa133 show little cytotoxic activity and therefore were likely important for the peptide's activity.

[2] = test system: HCC1937 cells lacking BRCA1; assay: MTT growth inhibition assay, HCC1937 cells lacking BRCA1; format: cell-based; details: for efficacy in MTT assay compared with the other peptides: HCC1937 and HCC1937+wild-type BRCA1 cells, 24 hours
Experimental: MTT [3-(4,5-dimethylthiazol-2-yl)-2,5-diphenyltetrazolium bromide] assays were conducted with caPeptides at a variety of time points both alone and in combination with a DNA damaging agent e.g., cisplatin in HCC1937 and HCC1937+wild-type BRCA1 cells. The MTT assay is based on the ability of a mitochondrial dehydrogenase enzyme from viable cells to cleave the tetrazolium rings of the pale yellow MTT dye and form dark blue formazan crystals. These formazan crystals are largely impermeable to cell membranes and thus accumulate within healthy cells. Solubilization of the cells by the addition of a detergent results in the liberation and solubilization of the crystals. The number of proliferating cells is directly proportional to the level of formazan product created. The color can then be quantified using a simple colorimetric assay. The results are read on a multiwall scanning spectrophotometer (ELISA reader). The peptides used in these experiments including caPeptide, Q131A ([…] (SEQ ID NO: 5)), and P129A ([…] (SEQ ID NO: 3)) were ordered and obtained from Anaspec (Fremont, Calif.). caPeptide was dissolved in sterile 1× PBS solution to create a 1.5 mM stock concentration. caPeptides with alanine substitutions (e.g., P129A (SEQ ID NO: 3) and Q131A (SEQ ID NO: 5)) were dissolved in sterile 1×PBS solution to create 1.0 mM stock solutions.
MTT assays: The efficacy of caPeptides were tested using the MTT assays: HCC1937 and HCC137+wildtype BRCA1 cells were grown in DMEM 1× (supplemented with 10% fetal bovine serum and 5% penicillin/streptomycin) and were plated at a densities of 5.5×10^3 or 7×10^3, respectively, in 96 well plates (100 μL total volume per well) and allowed to attach overnight in a 37° C. incubator (5% CO2). Then, caPeptide stock solution was diluted to final working concentrations in DMEM 1× (10% fetal bovine serum and 5% penicillin/streptomycin) of 150 μM, 100 μM, 75 μM, 50 μM, and 25 μM. Media was removed from cells and replaced with media containing caPeptide at various concentrations (200 μL total volume per well). Cells were cultured with caPeptide-containing media for 24, 48 or 72 hours. At the appropriate treatment timepoint, 20 μL MTT (5 mg/mL in PBS) reagent was added to each well and plates were incubated for an additional 4 hours. Media/dye solution was then aspirated and 200 μL DMSO was added to each well. Plates were rocked at room temperature for five minutes to dissolve crystals and transferred to an ELISA plate reader. Absorbance was measured at 550 nm. The extent to which caPeptides inhibited cell proliferation was calculated as a percentage of the absorbance in each well containing caPeptide relative to wells containing no caPeptide (negative control) for both HCC1937 and HCC1937+wild-type BRCA1 cells. […]

[3] = test system: HCC1937+wild-type BRCA1 cells; assay: MTT growth inhibition assay, HCC1937+wild-type BRCA1 cells; format: cell-based
Experimental: As a genetically matched control, wild-type BRCA1 has been transduced into HCC1937 cells (referred to as HCC1937+wild-type BRCA1). HCC1937+wild-type BRCA1 cells were selected for maintenance of the vector using 1 μg/mL puromycin. All cells in these assays were used at passage numbers <25.
MTT [3-(4,5-dimethylthiazol-2-yl)-2,5-diphenyltetrazolium bromide] assays were conducted with caPeptides at a variety of time points both alone and in combination with a DNA damaging agent e.g., cisplatin in HCC1937 and HCC1937+wild-type BRCA1 cells. […] The color can then be quantified using a simple colorimetric assay. The results are read on a multiwall scanning spectrophotometer (ELISA reader). […]
MTT assays: The efficacy of caPeptides were tested using the MTT assays: HCC1937 and HCC137+wildtype BRCA1 cells were grown in DMEM 1× (supplemented with 10% fetal bovine serum and 5% penicillin/streptomycin) and were plated at a densities of 5.5×10^3 or 7×10^3, respectively, in 96 well plates (100 μL total volume per well) and allowed to attach overnight in a 37° C. incubator (5% CO2). […] Plates were rocked at room temperature for five minutes to dissolve crystals and transferred to an ELISA plate reader. Absorbance was measured at 550 nm. […]

U937 cells [4] = details: 100 nM of doxorubicin alone
U937 cells [5] = assay: cells; details: Homo sapiens, U-937, 24 h
U937 cells [6] = assay: Cellular uptake and nuclear localization by fluorescence microscopy; format: cell-based; details: 10 μM, 24 hours, DAPI overlay
Experimental: To test cellular uptake and nuclear localization of R9-caPep, an N-terminal fluorescein isothiocyanate (FITC) residue was attached to allow microscopic visualization of the peptide's cellular location. The U937 cells were treated with 10 μM of FITC-R9-caPep for 24 hours. The cells were then collected onto a poly-L-lysine coated slide by cytospin and mounted with a media containing the DNA staining dye 4′-6-Diamidino-2-phenylindole (DAPI), which complexes with double stranded DNA and indicates the location of the nucleus. A Leica DM500 fluorescent microscope was used to visualize the staining.

CC[C@H](C)[C@H](NC(=O)CNC(=O)[C@H](CC(C)C)NC(=O)[C@H](CS)NC(=O)[C@H](CS)NC(=O)[C@@H](CCCNC(=N)N)NC(=O)[C@@H](CCCNC(=N)N)NC(=O)[C@@H](CCCNC(=N)N)NC(=O)[C@@H](CCCNC(=N)N)NC(=O)[C@@H](CCCNC(=N)N)NC(=O)[C@@H](CCCNC(=N)N)NC(=O)[C@@H](CCCNC(=N)N)NC(=O)[C@@H](CCCNC(=N)N)NC(=O)[C@H](N)CCCNC(=N)N)C(=O)N1CCC[C@H]1C(=O)N[C@@H](CCC(=O)O)C(=O)N[C@@H](CCC(N)=O)C(=O)N[C@@H](CCC(=O)O)C(=O)N[C@@H](Cc1ccc(O)cc1)C(=O)O [R9-caPep]
cytotoxicity for malignant breast cells (MCF7) relative to non-malignant breast cells (MCF10A) (MCF 7 (breast cancer)): approximately five times more cytotoxic

CC[C@H](C)[C@H](NC(=O)CNC(=O)[C@@H](N)CC(C)C)C(=O)N1CCC[C@H]1C(=O)N[C@@H](CCC(=O)O)C(=O)N[C@@H](CCC(N)=O)C(=O)N[C@@H](CCC(=O)O)C(=O)N[C@@H](Cc1ccc(O)cc1)C(=O)O [caPeptide] (H-LGIPEQEY-OH)
cytotoxic activity / apoptosis [1]: did not have any cytotoxic activity; also recorded: no increase in apoptosis

N.N.[Cl][Pt][Cl] [cisplatin, reference compound]
IC50 ([2]; HCC1937 cells lacking BRCA1, with R9-PCNA peptide 60 μM, read-out: IC50 value for R9-PCNA peptide (60 μM)+cisplatin): ~20 µM | sensitivity of the cells to cisplatin ([2]; HCC1937 cells, cisplatin alone): relatively resistant | sensitivity of the cells to cisplatin ([3]; HCC1937+wild-type BRCA1 cells, cisplatin alone): relatively resistant | IC50 ([3]; HCC1937 cells with BRCA1, with R9-PCNA peptide 60 μM, read-out: IC50 value for R9-PCNA peptide (60 μM)+cisplatin): ~100 µM

COc1cccc2c1C(=O)c1c(O)c3c(c(O)c1C2=O)C[C@@](O)(C(=O)CO)C[C@@H]3O[C@H]1C[C@H](N)[C@H](O)[C@H](C)O1 [doxorubicin]
cell death (U937 cells [4]): 30% | IC50 (U937 cells [5]; read-out: IC50 of doxorubicin, U937 cells, 24 hours, doxorubicin alone): ~0.14 µM | IC50 (U937 cells [5]; read-out: IC50 of doxorubicin, U937 cells, 24 hours, with 25 μM of R9-caPep): ~0.11 µM

FITC-RRRRRRRRRCCLGIPEQEY ({FITC}-[dR][dR][dR][dR][dR][dR][dR][dR][dR]CCLGIPEQEY; cysteine pairing not given here) [FITC-R9-caPep, R9-caPep with an N-terminal fluorescein isothiocyanate (FITC) residue]
cellular uptake and nuclear localization (U937 cells [6]): internalized by the cells and was accessible to the nucleus

LGIAEQEY [P129A]
efficacy in MTT assay compared with the other peptides [2]: enhanced efficacy in comparison to wild-type peptides

LGIPEAEY [Q131A]
efficacy in MTT assay compared with the other peptides [2]: enhanced efficacy in comparison to wild-type peptides; also recorded: more effective of these peptides tested

RRRRRRRRR [R9, reference compound]
cytotoxic activity / apoptosis [1]: did not promote apoptosis; also recorded: did not cause an increase apoptosis

RRRRRRRRRCCAGIPEQEY [A1-sub. Peptide]
% cancer cell death [1]: 8 ± 9%

RRRRRRRRRCCLAIPEQEY [A2-sub. Peptide]
% cancer cell death [1]: 47 ± 13%

RRRRRRRRRCCLGAPEQEY [A3-sub. Peptide]
% cancer cell death [1]: 21 ± 12%

RRRRRRRRRCCLGIAEQEY [A4-sub. Peptide]
% cancer cell death [1]: 80 ± 7%

RRRRRRRRRCCLGIPAQEY [A5-sub. Peptide]
% cancer cell death [1]: 45 ± 14%

RRRRRRRRRCCLGIPEAEY [A6-sub. Peptide]
% cancer cell death [1]: 93 ± 7%

RRRRRRRRRCCLGIPEQAY [A7-sub. Peptide]
% cancer cell death [1]: 88 ± 4%

RRRRRRRRRCCLGIPEQEA [A8-sub. Peptide]
% cancer cell death [1]: 7 ± 6%
